Source: patent US11306344B2, “Spectral intensity ratio (SIR) analysis for rapid live microbial enumeration” (TACOUNT EXACT LTD., priority 2015, dated 2022)
Where two headings read alike, the source gives them in different places.

Columns and labels:
Bacillus subtillis = assay: Flow-Cytometry NVP of dye-stained bacteria; assay type: cell-based, B. subtilis
Entrobacter cloacae = assay: Flow-Cytometry NVP of dye-stained bacteria; assay type: cell-based, E. cloacae
Entrobacter aerogenes = assay: Flow-Cytometry NVP of dye-stained bacteria; assay type: cell-based, E. aerogenes
E. coli - #25922 = assay: Flow-Cytometry NVP of dye-stained bacteria; assay type: cell-based; details: FM 1-43 staining
E. coli #8739 [1] = assay: Fluorimeter (spectrofluorimetry) spectra, SIR and NVP of dye-stained bacteria; assay type: cell-based
S. aureus = assay: Flow-Cytometry NVP of dye-stained bacteria; assay type: cell-based
Enterococcus faecalis = assay: Flow-Cytometry SIR and NVP of dye-stained bacteria; assay type: cell-based, E. faecalis
Pseudomonas aeruginosa = assay: Flow-Cytometry NVP of dye-stained bacteria; assay type: cell-based, Ps. Aeruginosa
E. coli - O157 = assay type: cell-based, E. coli O157:H7 (EHEC)
Enterococcus faecium = assay: Flow-Cytometry NVP of dye-stained bacteria; assay type: cell-based, E. faecium
E. coli #8739 [2] = assay: Flow-Cytometry SIR and NVP of dye-stained bacteria; assay type: cell-based; details: for NVP calculation / SIR calculation: 670 (14)/780 (60) nm channels
E. coli K12 (MG1655) = assay: Flow-Cytometry SIR analysis of E. coli K12 grown with ampicillin (FM 1-43 staining); assay type: cell-based; details: 1 hour
Experimental: The disclosed method was further validated in studies using E. coli K12 (MG1655, obtained from ATCC). After 5 hours of growth in medium, E. coli were divided into three groups: (A) grown for one hour with no antibiotics, (B) grown for one hour with 700 micrograms of ampicillin, and (C) grown for one hour with 1500 micrograms of ampicillin.
The bacteria were suspended in PBS and stained with FM® 1-43 (43N-(3-Triethylammoniumpropyl)-4-(4-(Dibutylamino) Styryl) Pyridinium Dibromide) ([…] as per the methodology described earlier.
Flow-Cytometry measurements of the stained bacterial samples were performed. In order to adjust the flow-cytometry to the spectral characterization as shown in the fluorescence spectra of the FM® 1-43 (43N-(3-Triethylammoniumpropyl)-4-(4-(Dibutylamino) Styryl) Pyridinium Dibromide) stained bacteria, the […] nm excitation channel of the flow-cytometry and two fluorescence channel using 530 (30) nm and 610 (20) nm as the λ1 and λ2 for the SIR calculation were used. The results are tabulated below and depicted in FIG. 14.

SMILES: CCCCN(CCCC)c1ccc(/C=C/c2cc[n+](CCC[N+](CC)(CC)CC)cc2)cc1.[Br-].[Br-] [FM® 1-43, N-(3-Triethylammoniumpropyl)-4-(4-(Dibutylamino) Styryl) Pyridinium Dibromide]
- NVP values (Bacillus subtillis; FM 1-43 staining, Chlorine): 1.5
- NVP values (Bacillus subtillis; FM 1-43 staining, Heated): 1.2
- NVP values (Bacillus subtillis; FM 1-43 staining, UV-MP): 1.2
- NVP values (Entrobacter cloacae; FM 1-43 staining, Chlorine): 10
- NVP values (Entrobacter cloacae; FM 1-43 staining, Heated): 8
- NVP values (Entrobacter cloacae; FM 1-43 staining, UV-MP): 5
- NVP values (Entrobacter aerogenes; FM 1-43 staining, Chlorine): 12
- NVP values (Entrobacter aerogenes; FM 1-43 staining, Heated): 8
- NVP values (Entrobacter aerogenes; FM 1-43 staining, UV-MP): 4.5
- NVP values (E. coli - #25922; Chlorine): 9
- NVP values (E. coli - #25922; Heated): 7
- NVP values (E. coli - #25922; UV-MP): 5
- Non-Viability Parameter (NVP) (E. coli #8739 [1]; 85°, 15 min): ~5
- SIR (I610/I530) (E. coli #8739 [1]; 85°, 15 min): ~7
- Non-Viability Parameter (NVP) (E. coli #8739 [1]; Chlorine 0.05%): ~5
- SIR (I610/I530) (E. coli #8739 [1]; Chlorine 0.05%): ~8
- Non-Viability Parameter (NVP) (E. coli #8739 [1]; Ethanol 70%): ~3
- SIR (I610/I530) (E. coli #8739 [1]; Ethanol 70%): 4.4
- SIR (I610/I530) (E. coli #8739 [1]; Live bacteria): ~1.5
- Non-Viability Parameter (NVP) (E. coli #8739 [1]; UV-LP 30 mJ): 1
- SIR (I610/I530) (E. coli #8739 [1]; UV-LP 30 mJ): 1
- Non-Viability Parameter (NVP) (E. coli #8739 [1]; UV-MP 30 mJ): ~2
- SIR (I610/I530) (E. coli #8739 [1]; UV-MP 30 mJ): 3.7
- NVP values (S. aureus; FM 1-43 staining, Chlorine): 1.7
- NVP values (S. aureus; FM 1-43 staining, Heated): 1.6
- NVP values (S. aureus; FM 1-43 staining, UV-MP): 1.1
- NVP (Enterococcus faecalis; 530(30)/610(20), Chlorine): 2
- NVP (Enterococcus faecalis; 530(30)/610(20), Heated): 1.6
- NVP (Enterococcus faecalis; 530(30)/610(20), UV-MP): 1.1
- SIR: 530(30)/610(20) (Enterococcus faecalis; Chlorine): 13
- NVP values (Enterococcus faecalis; FM 1-43 staining, Chlorine): 2
- NVP values (Enterococcus faecalis; FM 1-43 staining, Heated): 1.6
- NVP values (Enterococcus faecalis; FM 1-43 staining, UV-MP): 1.1
- SIR: 530(30)/610(20) (Enterococcus faecalis; Heated): 10.3
- SIR: 530(30)/610(20) (Enterococcus faecalis; Live): 6.5
- SIR: 530(30)/610(20) (Enterococcus faecalis; UV-MP): 7.1
- NVP values (Pseudomonas aeruginosa; FM 1-43 staining, Chlorine): 5
- NVP values (Pseudomonas aeruginosa; FM 1-43 staining, Heated): 4.6
- NVP values (Pseudomonas aeruginosa; FM 1-43 staining, UV-MP): 3.2
- NVP values (E. coli - O157): ~10
- NVP values (E. coli - O157; FM 1-43 staining, Heated): ~10
- NVP values (Enterococcus faecium; FM 1-43 staining, Chlorine): 1.7
- NVP values (Enterococcus faecium; FM 1-43 staining, Heated): 1.6
- Non-Viability Parameter (NVP) (E. coli #8739 [2]; 85°, 15 min): 9
- SIR (610/530) Ratio (E. coli #8739 [2]; 85°, 15 min): 8.8
- Non-Viability Parameter (NVP) (E. coli #8739 [2]; Chlorine 0.05%): 10
- SIR (610/530) Ratio (E. coli #8739 [2]; Chlorine 0.05%): 9.6
- Non-Viability Parameter (NVP) (E. coli #8739 [2]; Ethanol 70%): 7
- SIR (610/530) Ratio (E. coli #8739 [2]; Ethanol 70%): 6.5
- NVP values (E. coli #8739 [2]; FM 1-43 staining, Chlorine): 10
- NVP values (E. coli #8739 [2]; FM 1-43 staining, Heated): 9
- NVP values (E. coli #8739 [2]; FM 1-43 staining, UV-MP): 5
- SIR (610/530) Ratio (E. coli #8739 [2]; Live bacteria): 0.73
- Non-Viability Parameter (NVP) (E. coli #8739 [2]; UV-LP 30 mJ): 1
- SIR (610/530) Ratio (E. coli #8739 [2]; UV-LP 30 mJ): 0.7
- Non-Viability Parameter (NVP) (E. coli #8739 [2]; UV-MP 30 mJ): 5
- SIR (610/530) Ratio (E. coli #8739 [2]; UV-MP 30 mJ): 3.5

SMILES: CCN(CC)c1ccc(C=CC=CC=Cc2cc[n+](CCC[N+](CC)(CC)CC)cc2)cc1.[Br-].[Br-] [FM® 4-64, N-(3-Triethylammoniumpropyl)-4-(6-(4-(Diethylamino) Phenyl) Hexatrienyl) Pyridinium Dibromide]
- NVP values (Bacillus subtillis; FM 4-64 staining, Chlorine): 1.5
- NVP values (Bacillus subtillis; FM 4-64 staining, Heated): 1.8
- NVP values (Entrobacter cloacae; FM 4-64 staining, Chlorine): 4.5
- NVP values (Entrobacter cloacae; FM 4-64 staining, Heated): 3.7
- NVP values (Entrobacter cloacae; FM 4-64 staining, UV-MP): 2.5
- NVP values (Entrobacter aerogenes; FM 4-64 staining, Chlorine): 4.5
- NVP values (Entrobacter aerogenes; FM 4-64 staining, Heated): 3.3
- NVP values (Entrobacter aerogenes; FM 4-64 staining, UV-MP): 1.7
- NVP values (S. aureus; FM 4-64 staining, Chlorine): 2.4
- NVP values (S. aureus; FM 4-64 staining, Heated): 3
- NVP values (S. aureus; FM 4-64 staining, UV-MP): 1.1
- NVP (Enterococcus faecalis; 670(14)/780(60), Chlorine): 2.9
- NVP (Enterococcus faecalis; 670(14)/780(60), Heated): 3
- NVP (Enterococcus faecalis; 670(14)/780(60), UV-MP): 1.2
- SIR: 670(14)/780(60) (Enterococcus faecalis; Chlorine): 19.7
- NVP values (Enterococcus faecalis; FM 4-64 staining, Chlorine): 2.9
- NVP values (Enterococcus faecalis; FM 4-64 staining, Heated): 3
- NVP values (Enterococcus faecalis; FM 4-64 staining, UV-MP): 1.2
- SIR: 670(14)/780(60) (Enterococcus faecalis; Heated): 20
- SIR: 670(14)/780(60) (Enterococcus faecalis; Live): 6.7
- SIR: 670(14)/780(60) (Enterococcus faecalis; UV-MP): 8.1
- NVP values (Pseudomonas aeruginosa; FM 4-64 staining, Chlorine): 2
- NVP values (Pseudomonas aeruginosa; FM 4-64 staining, Heated): 1.8
- NVP values (Enterococcus faecium; FM 4-64 staining, Chlorine): 3
- NVP values (Enterococcus faecium; FM 4-64 staining, Heated): 3
- NVP calculation (E. coli #8739 [2]; Chlorinated): 3.4
- SIR calculation (E. coli #8739 [2]; Chlorinated): 12
- NVP calculation (E. coli #8739 [2]; Heated (85°, 15 min)): 4
- SIR calculation (E. coli #8739 [2]; Heated (85°, 15 min)): 14
- SIR calculation (E. coli #8739 [2]; Live): 3.5
- NVP calculation (E. coli #8739 [2]; UV-MP): 3.7
- SIR calculation (E. coli #8739 [2]; UV-MP): 13
- NVP values (E. coli #8739 [2]; FM 4-64 staining, Chlorine): 3.4
- NVP values (E. coli #8739 [2]; FM 4-64 staining, Heated): 4
- NVP values (E. coli #8739 [2]; FM 4-64 staining, UV-MP): 3.7

SMILES: CC1(C)S[C@@H]2[C@H](NC(=O)[C@H](N)c3ccccc3)C(=O)N2[C@H]1C(=O)O [ampicillin]
- % from population (E. coli K12 (MG1655); 700 μg ampicillin, DEAD gate): 15%
- SIR (E. coli K12 (MG1655); 700 μg ampicillin, DEAD gate): 4.4
- % from population (E. coli K12 (MG1655); 700 μg ampicillin, LIVE gate): 83.7%
- SIR (E. coli K12 (MG1655); 700 μg ampicillin, LIVE gate): 1
- % from population (E. coli K12 (MG1655); 1500 μg ampicillin, DEAD gate): 20%
- SIR (E. coli K12 (MG1655); 1500 μg ampicillin, DEAD gate): 5.3
- % from population (E. coli K12 (MG1655); 1500 μg ampicillin, LIVE gate): 78%
- SIR (E. coli K12 (MG1655); 1500 μg ampicillin, LIVE gate): 1
